Patent publication US20020137929A1, “1 - (3-heterocyclylphenyl) isothiourea, -isourea, -guanidine and -amidine herbicidal agents” (Intellectual Property Department, BASF Aktiengesellschaft, priority 1998, published 2002)

Columns and labels:
ZEAMX (Corn, Field) = experiment: Postemergence herbicidal evaluation; type: in vivo, Zea mays; settings: for ZEAMX herbicidal rating: postemergence
How it was run: (§1)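 Visual 0-9 injury score (stand, vigor, malformation, size, chlorosis, appearance vs untreated) taken four to five weeks post-spray, averaged across repeat tests. Test plants about two weeks old; foliar spray of acetone/water (1:1) with 0.5% surfactant delivering ~0.0156-0.500 kg active/ha.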

[1] = tested on: GLXMAW (Soybean, Williams); experiment: Postemergence herbicidal evaluation; type: in vivo, Glycine max, (L.) Merr. cv Williams; settings: for GLXMAW herbicidal rating: postemergence
How it was run: as §1

[2] = tested on: CHEAL (Lambsquarters, Common); experiment: Postemergence herbicidal evaluation; type: in vivo, Chenopodium album; settings: for CHEAL herbicidal rating: postemergence
How it was run: as §1

[3] = tested on: TRZAWR (Wheat, Winter, cv Riband); experiment: Postemergence herbicidal evaluation; type: in vivo, Triticum aestivum; settings: for TRZAWR herbicidal rating: postemergence
How it was run: as §1

SETVI (Foxtail, Green) [4] = experiment: Postemergence herbicidal evaluation; type: in vivo, Setaria viridis; settings: for SETVI herbicidal rating: postemergence
How it was run: as §1

SETVI (Foxtail, Green) [5] = experiment: Preemergence herbicidal evaluation; type: in vivo, Setaria viridis; settings: rated 4-5 weeks after treatment; for SETVI rating: preemergence, 0-9 scale
How it was run: (§2)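 Scores use a 0–9 visual scale covering stand, vigor, malformation, size and chlorosis relative to controls, rated four to five weeks after treatment. Before emergence, soil-planted seeds were sprayed with compound in aqueous acetone at roughly 0.0156–0.500 kg/ha and held in the greenhouse.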

[6] = tested on: SAGPY (Arrowhead (Pygmaea)); experiment: Postemergence weed control under flooded paddy conditions; type: in vivo, Sagittaria pygmaea; settings: postemergence weeds
How it was run: (§3)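 Injury ratings (0–9 scale covering stand, vigor, malformation, size, chlorosis and overall appearance versus control) were made three to four weeks after treatment. Test material, about 0.0313 to 0.500 kg/ha a.i. in 50/50 v/v aqueous/acetone, was added to flood water 1.5 to 3 cm deep over 3 to 5 cm weeds and 1.5 to 2.5 leaf rice.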

GALAP (Galium) = experiment: Preemergence herbicidal evaluation; type: in vivo, Galium aparine; settings: rated 4-5 weeks after treatment; for GALAP rating: preemergence, 0-9 scale
How it was run: as §2

CYPIR (Rice Flatsedge) = experiment: Preemergence weed control under flooded paddy conditions; type: in vivo, Cyperus iria; settings: rated 3-4 weeks after treatment
How it was run: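 First, seeds or propagules go into the top 0.5 cm of silt loam; next, water is held 1.5 to 3 cm over the soil; then compound (50/50 acetone/water) is pipetted into it at about 0.0313 to 0.500 kg/ha; finally plants are rated visually 0-9 after three to four weeks.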

ABUTH (Velvetleaf) = experiment: Postemergence herbicidal evaluation; type: in vivo, Abutilon theophrasti; settings: for ABUTH herbicidal rating: postemergence
How it was run: as §1

CYPSE (Flatsedge) = experiment: Postemergence weed control under flooded paddy conditions; type: in vivo, Cyperus serotinus; settings: postemergence weeds
How it was run: as §3

ORYSAT (Rice, Tebonnet) = experiment: Postemergence herbicidal evaluation; type: in vivo, Oryza sativa, (L.) Tebonnet; settings: for ORYSAT herbicidal rating: postemergence
How it was run: as §1

AMBEL (Ragweed, Common) = experiment: Preemergence herbicidal evaluation; type: in vivo, Ambrosia artemisifolia; settings: rated 4-5 weeks after treatment; for AMBEL rating: preemergence, 0-9 scale
How it was run: as §2

[7] = tested on: ECHORC (Watergrass (Calif.)); experiment: Postemergence weed control under flooded paddy conditions; type: in vivo, Echinochloa oryzoides; settings: postemergence weeds
How it was run: as §3

[8] = rate 0.0313 kg/ha, 3-4 weeks after treatment
[9] = rate 0.0625 kg/ha, 3-4 weeks after treatment
[10] = rate 0.1250 kg/ha, 3-4 weeks after treatment
[11] = rate 0.2500 kg/ha, 3-4 weeks after treatment
[12] = Rate 0.0313 kg/ha, rated 3 to 4 weeks after treatment
[13] = Rate 0.0625 kg/ha, rated 3 to 4 weeks after treatment
[14] = Rate 0.1250 kg/ha, rated 3 to 4 weeks after treatment
[15] = Rate 0.2500 kg/ha, rated 3 to 4 weeks after treatment

CCOC(=O)COc1ccccc1CC1S/C(=N/c2cc(-n3c(=O)cc(C(F)(F)F)n(C)c3=O)c(F)cc2Cl)N(CC(=O)OCC)C1=O (centres unmarked) [Compound 42, 2-{{2-Chloro-5-[3,6-dihydro-3-methyl-2,6-dioxo-4-(trifluoromethyl)-1(2H)-pyrimidinyl]-4-fluoro-phenyl}imino}-5-(o-hydroxybenzyl)-4-oxo-3-thiazolidineacetic acid, ethyl ester, ester with ethyl glycolate]
Postemergence herbicidal rating ZEAMX (ZEAMX (Corn, Field); Rate 0.0158 kg/ha): 4.5 | Postemergence herbicidal rating ZEAMX (ZEAMX (Corn, Field); Rate 0.0315 kg/ha): 4.5 | Postemergence herbicidal rating ZEAMX (ZEAMX (Corn, Field); Rate 0.0630 kg/ha): 4.5 | Postemergence herbicidal rating GLXMAW ([1]; Rate 0.0158 kg/ha): 5.5 | Postemergence herbicidal rating GLXMAW ([1]; Rate 0.0315 kg/ha): 6.0 | Postemergence herbicidal rating GLXMAW ([1]; Rate 0.0630 kg/ha): 6.5 | Postemergence herbicidal rating CHEAL ([2]; Rate 0.0158 kg/ha): 3.0 | Postemergence herbicidal rating CHEAL ([2]; Rate 0.0315 kg/ha): 9.0 | Postemergence herbicidal rating CHEAL ([2]; Rate 0.0630 kg/ha): 6.0 | Postemergence herbicidal rating TRZAWR ([3]; Rate 0.0158 kg/ha): 3.5 | Postemergence herbicidal rating TRZAWR ([3]; Rate 0.0315 kg/ha): 3.5 | Postemergence herbicidal rating TRZAWR ([3]; Rate 0.0630 kg/ha): 3.5 | Postemergence herbicidal rating SETVI (SETVI (Foxtail, Green) [4]; Rate 0.0158 kg/ha): 0.0 | Postemergence herbicidal rating SETVI (SETVI (Foxtail, Green) [4]; Rate 0.0315 kg/ha): 1.0 | Postemergence herbicidal rating SETVI (SETVI (Foxtail, Green) [4]; Rate 0.0630 kg/ha): 1.0 | Preemergence herbicidal rating SETVI (SETVI (Foxtail, Green) [5]; rate 0.0313 kg/ha): 0.0 | Preemergence herbicidal rating SETVI (SETVI (Foxtail, Green) [5]; rate 0.0625 kg/ha): 1.0 | Preemergence herbicidal rating SETVI (SETVI (Foxtail, Green) [5]; rate 0.1250 kg/ha): 0.0 | Preemergence herbicidal rating SETVI (SETVI (Foxtail, Green) [5]; rate 0.2500 kg/ha): 0.0 | Herbicidal rating SAGPY [6, 8]: 0.0 | Herbicidal rating SAGPY [6, 9]: 0.0 | Herbicidal rating SAGPY [6, 10]: 0.0 | Herbicidal rating SAGPY [6, 11]: 3.0 | Preemergence herbicidal rating GALAP (GALAP (Galium); rate 0.0313 kg/ha): 0.0 | Preemergence herbicidal rating GALAP (GALAP (Galium); rate 0.0625 kg/ha): 0.0 | Preemergence herbicidal rating GALAP (GALAP (Galium); rate 0.1250 kg/ha): 0.0 | Preemergence herbicidal rating GALAP (GALAP (Galium); rate 0.2500 kg/ha): 0.0 | Herbicidal rating CYPIR (CYPIR (Rice Flatsedge); 0.0313 kg/ha): 0.0 | Herbicidal rating CYPIR (CYPIR (Rice Flatsedge); 0.0625 kg/ha): 0.0 | Herbicidal rating CYPIR (CYPIR (Rice Flatsedge); 0.1250 kg/ha): 0.0 | Herbicidal rating CYPIR (CYPIR (Rice Flatsedge); 0.2500 kg/ha): 0.0 | Postemergence herbicidal rating ABUTH (ABUTH (Velvetleaf); Rate 0.0158 kg/ha): 9.0 | Postemergence herbicidal rating ABUTH (ABUTH (Velvetleaf); Rate 0.0315 kg/ha): 9.0 | Postemergence herbicidal rating ABUTH (ABUTH (Velvetleaf); Rate 0.0630 kg/ha): 9.0 | Herbicidal rating CYPSE (CYPSE (Flatsedge); [8]): 0.0 | Herbicidal rating CYPSE (CYPSE (Flatsedge); [9]): 0.0 | Herbicidal rating CYPSE (CYPSE (Flatsedge); [10]): 0.0 | Herbicidal rating CYPSE (CYPSE (Flatsedge); [11]): 0.0 | Postemergence herbicidal rating ORYSAT (ORYSAT (Rice, Tebonnet); Rate 0.0158 kg/ha): 2.5 | Postemergence herbicidal rating ORYSAT (ORYSAT (Rice, Tebonnet); Rate 0.0315 kg/ha): 2.5 | Postemergence herbicidal rating ORYSAT (ORYSAT (Rice, Tebonnet); Rate 0.0630 kg/ha): 3.0 | Preemergence herbicidal rating AMBEL (AMBEL (Ragweed, Common); rate 0.0313 kg/ha): 0.0 | Preemergence herbicidal rating AMBEL (AMBEL (Ragweed, Common); rate 0.0625 kg/ha): 0.0 | Preemergence herbicidal rating AMBEL (AMBEL (Ragweed, Common); rate 0.1250 kg/ha): 0.0 | Preemergence herbicidal rating AMBEL (AMBEL (Ragweed, Common); rate 0.2500 kg/ha): 6.0 | Herbicidal rating ECHORC [7, 8]: 5.0 | Herbicidal rating ECHORC [7, 9]: 5.0 | Herbicidal rating ECHORC [7, 10]: 5.0 | Herbicidal rating ECHORC [7, 11]: 6.0

CCOC(=O)CN1C(=O)C(CC(=O)OCCF)SC1=Nc1cc(-n2c(=O)cc(C(F)(F)F)n(C)c2=O)c(F)cc1Cl (centres unmarked) [Compound 82, 2-{{2-Chloro-5-[3,6-dihydro-3-methyl-2,6-dioxo-4-(trifluoromethyl)-1(2H)-pyrimidinyl]-4-fluoro-phenyl}imino}-4-oxo-3,5-thiazolidinediacetic acid, 3-ethyl 2-fluoroethyl ester]
ZEAMX herbicidal rating (ZEAMX (Corn, Field); rate 0.0158 kg/ha): 8.5 | ZEAMX herbicidal rating (ZEAMX (Corn, Field); rate 0.0315 kg/ha): 8.5 | ZEAMX herbicidal rating (ZEAMX (Corn, Field); rate 0.0630 kg/ha): 9.0 | GLXMAW herbicidal rating ([1]; rate 0.0158 kg/ha): 8.5 | GLXMAW herbicidal rating ([1]; rate 0.0315 kg/ha): 9.0 | GLXMAW herbicidal rating ([1]; rate 0.0630 kg/ha): 9.0 | CHEAL herbicidal rating ([2]; rate 0.0158 kg/ha): 7.0 | CHEAL herbicidal rating ([2]; rate 0.0315 kg/ha): 9.0 | CHEAL herbicidal rating ([2]; rate 0.0630 kg/ha): 9.0 | TRZAWR herbicidal rating ([3]; rate 0.0158 kg/ha): 7.5 | TRZAWR herbicidal rating ([3]; rate 0.0315 kg/ha): 7.5 | TRZAWR herbicidal rating ([3]; rate 0.0630 kg/ha): 8.5 | SETVI herbicidal rating (SETVI (Foxtail, Green) [4]; rate 0.0158 kg/ha): 9.0 | SETVI herbicidal rating (SETVI (Foxtail, Green) [4]; rate 0.0315 kg/ha): 9.0 | SETVI herbicidal rating (SETVI (Foxtail, Green) [4]; rate 0.0630 kg/ha): 9.0 | SETVI rating (SETVI (Foxtail, Green) [5]; 0.0156 kg/ha): 0.0 | SETVI rating (SETVI (Foxtail, Green) [5]; 0.0313 kg/ha): 0.0 | SETVI rating (SETVI (Foxtail, Green) [5]; 0.0625 kg/ha): 7.0 | SETVI rating (SETVI (Foxtail, Green) [5]; 0.1250 kg/ha): 9.0 | SETVI rating (SETVI (Foxtail, Green) [5]; 0.2500 kg/ha): 9.0 | Herbicidal rating SAGPY [6, 12]: 4.0 | Herbicidal rating SAGPY [6, 13]: 4.0 | Herbicidal rating SAGPY [6, 14]: 4.0 | Herbicidal rating SAGPY [6, 15]: 7.0 | GALAP rating (GALAP (Galium); 0.0156 kg/ha): 0.0 | GALAP rating (GALAP (Galium); 0.0313 kg/ha): 0.0 | GALAP rating (GALAP (Galium); 0.0625 kg/ha): 0.0 | GALAP rating (GALAP (Galium); 0.1250 kg/ha): 9.0 | GALAP rating (GALAP (Galium); 0.2500 kg/ha): 9.0 | CYPIR herbicidal effect rating (CYPIR (Rice Flatsedge); 0.0313 kg/ha): 0.0 | CYPIR herbicidal effect rating (CYPIR (Rice Flatsedge); 0.0625 kg/ha): 0.0 | CYPIR herbicidal effect rating (CYPIR (Rice Flatsedge); 0.1250 kg/ha): 3.0 | CYPIR herbicidal effect rating (CYPIR (Rice Flatsedge); 0.2500 kg/ha): 3.0 | ABUTH herbicidal rating (ABUTH (Velvetleaf); rate 0.0158 kg/ha): 9.0 | ABUTH herbicidal rating (ABUTH (Velvetleaf); rate 0.0315 kg/ha): 9.0 | ABUTH herbicidal rating (ABUTH (Velvetleaf); rate 0.0630 kg/ha): 9.0 | Herbicidal rating CYPSE (CYPSE (Flatsedge); [12]): 0.0 | Herbicidal rating CYPSE (CYPSE (Flatsedge); [13]): 0.0 | Herbicidal rating CYPSE (CYPSE (Flatsedge); [14]): 2.0 | Herbicidal rating CYPSE (CYPSE (Flatsedge); [15]): 4.0 | ORYSAT herbicidal rating (ORYSAT (Rice, Tebonnet); rate 0.0158 kg/ha): 3.0 | ORYSAT herbicidal rating (ORYSAT (Rice, Tebonnet); rate 0.0315 kg/ha): 3.0 | ORYSAT herbicidal rating (ORYSAT (Rice, Tebonnet); rate 0.0630 kg/ha): 8.5 | AMBEL rating (AMBEL (Ragweed, Common); 0.0156 kg/ha): 0.0 | AMBEL rating (AMBEL (Ragweed, Common); 0.0313 kg/ha): 2.0 | AMBEL rating (AMBEL (Ragweed, Common); 0.0625 kg/ha): 3.0 | AMBEL rating (AMBEL (Ragweed, Common); 0.1250 kg/ha): 9.0 | AMBEL rating (AMBEL (Ragweed, Common); 0.2500 kg/ha): 9.0 | Herbicidal rating ECHORC [7, 12]: 4.0 | Herbicidal rating ECHORC [7, 13]: 4.0 | Herbicidal rating ECHORC [7, 14]: 6.0 | Herbicidal rating ECHORC [7, 15]: 9.0
